# Measurements: patent US20250351832A1, “PHYTOCHEMICALS AS BIOPESTICIDES AND BIOSTIMULANTS” (KAY BEE BIO ORGANICS PVT. LTD., priority 2024, published 2025)
# Read-outs that look alike come from different tables or passages of the source.
# Tests used:
# Thrips [1] = conditions: 48 h, 1 mL or g/L
# Helicoverpa armigera [2] = experiment: In vitro bio-efficacy against Helicoverpa armigera (Ex. 17); conditions: in vivo
# tomato seedlings = experiment: Response of tomato plants, greenhouse growth (Ex. 30); assay type: in vivo; conditions: tomato seedlings, dose 1 ml/gm/lit
# Aphid [3] = experiment: whole plant or invertebrate; conditions: 48 h
# chili seedlings = experiment: Response of chili plants, greenhouse growth (Ex. 31); assay type: in vivo
# Mealy Bug [4] = experiment: Green house effect on mealy bugs, cotton plants (Ex. 24); conditions: in vivo
# Spodoptera litura [5] = conditions: 72 h, 1 mL or g/L
# Spodoptera litura [6] = experiment: whole plant or invertebrate; conditions: 72 h
# Alternaria alternata [7] = experiment: Alternaria leaf spot/blight on inoculated tomato plants (Ex. 28); assay type: in vivo; conditions: tomato plants, Alternaria alternata; after 7 days; dose 1 ml/gm/lit
# Aphid [8] = test system: Aphid
# Mite [9] = conditions: Dose 1 ml/gm/lit.; 48 hrs
# Spodoptera litura [10] = experiment: Controlled conditions, Spodoptera litura on cabbage plants (Ex. 26); conditions: in vivo
# Thrips [11] = experiment: whole plant or invertebrate; conditions: in Gossypium hirsutum, 48 h
# Thrips [12] = conditions: 48 h
# Mite [13] = experiment: Green house effect on mite, okra plants (Ex. 23); conditions: in vivo
# Helicoverpa armigera [14] = experiment: Controlled conditions, Helicoverpa armigera on chickpea plants (Ex. 25); conditions: in vivo
# Aphid [15] = conditions: 48 h, 1 mL or g/L
# Mealy Bug [16] = experiment: In vitro bio-efficacy against mealy bug (Ex. 16); conditions: in vivo
# [17] = cited from earlier work
# Thrips [18] = experiment: Greenhouse effect on thrips, cotton plants (Ex. 27); conditions: in vivo
# Alternaria alternata [19] = experiment: In vitro poisoned food technique against fungus (Ex. 20); assay type: cell-based; conditions: poisoned food technique, PDA medium, dose 1 ml/gm/lit., after seven days
# [20] = read-out: % Corrected Mortality at 48 Hrs.
# [21] = read-out: % Mortality at 48 Hrs.
# [22] = chili seedlings, dose 1 ml/gm/lit, 5th day after application
# [23] = chili seedlings, dose 1 ml/gm/lit, 10th day
# [24] = chili seedlings, dose 1 ml/gm/lit, 10th day after application
# [25] = Table 13, descriptive, no test described
compound,measurement,setting,value
C=CCc1ccc(OC)c(O)c1 [Chavibetol],Total No. of dead insect at 48 Hrs.,Thrips [1],5.25
same,% Corrected Mortality at 72 Hrs.,Helicoverpa armigera [2],42.50%
same,% Mortality at 72 Hrs.,Helicoverpa armigera [2],42.50%
same,Plant Height 5th Day,tomato seedlings; 5th day after application,7.26 cm
same,Stem Girth 5th Day,tomato seedlings; 5th day after application,1.49 mm
same,Plant Height 10th Day,tomato seedlings; 10th day after application,8.34 cm
same,Stem Girth 10th Day,tomato seedlings; 10th day after application,2.25 mm
same,Plant Height % Increase over pre on 10th Day,tomato seedlings; 10th day,36.50%
same,Stem Girth % Increase over pre on 10th Day,tomato seedlings; 10th day,60.71%
same,CCI 5th Day,tomato seedlings; 5th day after application,14.68
same,CCI % Increase over pre on 10th Day,tomato seedlings; 10th day,32.22%
same,Root Length (cm) 10th Day,tomato seedlings; 10th day,4.69 cm
same,CCI 10th Day,tomato seedlings; 10th day after application,16.58
same,Root Length % Increase over control,"tomato seedlings; 10th day, vs water control",41.03%
same,mortality at 1 mL or g/L,Aphid [3]; [20],47.1%
same,mortality at 1 mL or g/L,Aphid [3]; [21],55%
same,CCI Pre,chili seedlings,9.82
same,Plant Height (cm) Pre,chili seedlings,4.39 cm
same,CCI 5th Day,chili seedlings; [22],14.58
same,Plant Height (cm) 5th Day,chili seedlings; [22],5.07 cm
same,CCI % Increase over pre on 10th Day,chili seedlings; [23],52.55%
same,Plant Height % Increase over pre on 10th Day,chili seedlings; [23],59.00%
same,Root Lenght (cm) 10th Day,chili seedlings; [23],3.60 cm
same,Stem Girth % Increase over pre on 10th Day,chili seedlings; [23],45.45%
same,CCI 10th Day,chili seedlings; [24],14.98
same,Plant Height (cm) 10th Day,chili seedlings; [24],6.98 cm
same,Root Lenght % Increase over control,"chili seedlings; chili seedlings, dose 1 ml/gm/lit, 10th day, vs water control",31.63%
same,% Corrected Mortality at 48 Hrs.,Mealy Bug [4],38.89%
same,% Mortality at 48 Hrs.,Mealy Bug [4],45.00%
same,Total No. of dead insect at 72 Hrs.,Spodoptera litura [5],4.25
same,mortality at 1 mL or g/L,Spodoptera litura [6]; read-out: % Corrected Mortality at 72 Hrs.,39.5%
same,mortality at 1 mL or g/L,Spodoptera litura [6]; read-out: % Mortality at 72 Hrs.,42.5%
same,% Disease reduction over Control,Alternaria alternata [7],47.11%
same,Total No. of dead insect at 48 Hrs.,Aphid [8]; 48 h,5.50
same,% Corrected Mortality at 48 Hrs.,"Aphid [8]; Dose 1 ml/gm/lit., 48 hrs",48.57%
same,% Corrected Mortality at 48 Hrs.,Mite [9],18.92%
same,% Mortality at 48 Hrs.,Mite [9],25.00%
same,% Corrected Mortality at 72 Hrs.,Spodoptera litura [10],41.05%
same,% Mortality at 72 Hrs.,Spodoptera litura [10],44.00%
same,mortality at 1 mL or g/L,Thrips [11]; [20],45.7%
same,mortality at 1 mL or g/L,Thrips [11]; [21],52.5%
same,Total No. of dead insect at 48 Hrs.,Thrips [12],52.50
same,% Corrected Mortality at 48 Hrs.,Mite [13],18.42%
same,% Mortality at 48 Hrs.,Mite [13],22.50%
same,% Corrected Mortality at 72 Hrs.,Helicoverpa armigera [14],47.50%
same,% Mortality at 72 Hrs.,Helicoverpa armigera [14],47.50%
same,Total No. of dead insect at 48 Hrs.,Aphid [15],55.00
same,% Corrected Mortality at 48 Hrs.,Mealy Bug [16],36.84%
same,% Mortality at 48 Hrs.,Mealy Bug [16],40.00%
same,Antioxidant Activity - Mode of action,[17]; [25],Increasing Antioxidative
same,Bactericidal Activity - Mode of action,[17]; [25],Inhibit the reproduction
same,Insecticidal Activities - Mode of action,[17]; [25],Repellent
same,Phytotonic Effect,"[17]; Table 13, effect on plants, descriptive",trigger seed
same,% Corrected Mortality at 48 Hrs.,Thrips [18],47.22%
same,Mean colony Diameter (mm),Alternaria alternata [19],55.50 mm
same,inhibition of growth at 1 mL or g/L,"Alternaria alternata [19]; vs untreated control, read-out: % Inhibition of growth",36.9%
